In US11299488B2, “Five membered-aminoheterocycle and 5,6-or 6,6-membered bicyclic aminoheterocyclic inhibitors of rock for the treatment of heart failure” (BRISTOL-MYERS SQUIBB COMPANY, priority 2017, dated 2022):

How the values were obtained:
[1] = tested on: IL-1 beta-induced coronary stenosis; conditions: long term treatment; cited from earlier work
rat stroke model = conditions: in vivo; cited from earlier work
[2] = tested on: spontaneously hypertensive rat, renal hypertensive rat and deoxycortisone acetate salt hypertensive rat models; conditions: cited from earlier work
neointimal formation = conditions: rats, similar model to balloon injury; cited from earlier work
[3] = tested on: congestive heart failure in Dahl salt-sensitive rats; conditions: rat, in vivo; cited from earlier work
ROCK2 = ROCK2 (Homo sapiens (Human), UniProt O75116); assay: ROCK assay (Caliper LABCHIP peptide phosphorylation, 5 μM ATP); format: biochemical
Procedure: The effectiveness of compounds of the present invention as ROCK inhibitors can be determined in a 30 μL assay containing 20 mM HEPES, pH 7.5, 20 mM MgCl2, 0.015% Brij-35, 4 mM DTT, 5 μM ATP and 1.5 μM peptide substrate (FITC-AHA-AKRRRLSSLRA-OH) (SEQ ID No. 1). Compounds were dissolved in DMSO so that the final concentration of DMSO was <2%, and the reaction was initiated with Rho kinase variants. After incubation, the reaction was terminated by the addition of EDTA and the phosphorylated and non-phosphorylated peptides separated using a LABCHIP® 3000 Reader (Caliper Life Sciences). […] Compounds were tested in dose-response format, and the inhibition of kinase activity was calculated at each concentration of compound. The inhibition data were fit using a curve-fitting program to determine the IC50; i.e., the concentration of compound required to inhibit 50% of kinase activity. Representative Examples were tested in the ROCK assay described above and found having ROCK inhibitory activity. A range of ROCK inhibitory activity (IC50 values) of ≤50 μM (50000 nM) was observed. Table A below lists the ROCK IC50 values measured for the following examples.

ROCK2, sequence (O75116 whole entry, species assumed): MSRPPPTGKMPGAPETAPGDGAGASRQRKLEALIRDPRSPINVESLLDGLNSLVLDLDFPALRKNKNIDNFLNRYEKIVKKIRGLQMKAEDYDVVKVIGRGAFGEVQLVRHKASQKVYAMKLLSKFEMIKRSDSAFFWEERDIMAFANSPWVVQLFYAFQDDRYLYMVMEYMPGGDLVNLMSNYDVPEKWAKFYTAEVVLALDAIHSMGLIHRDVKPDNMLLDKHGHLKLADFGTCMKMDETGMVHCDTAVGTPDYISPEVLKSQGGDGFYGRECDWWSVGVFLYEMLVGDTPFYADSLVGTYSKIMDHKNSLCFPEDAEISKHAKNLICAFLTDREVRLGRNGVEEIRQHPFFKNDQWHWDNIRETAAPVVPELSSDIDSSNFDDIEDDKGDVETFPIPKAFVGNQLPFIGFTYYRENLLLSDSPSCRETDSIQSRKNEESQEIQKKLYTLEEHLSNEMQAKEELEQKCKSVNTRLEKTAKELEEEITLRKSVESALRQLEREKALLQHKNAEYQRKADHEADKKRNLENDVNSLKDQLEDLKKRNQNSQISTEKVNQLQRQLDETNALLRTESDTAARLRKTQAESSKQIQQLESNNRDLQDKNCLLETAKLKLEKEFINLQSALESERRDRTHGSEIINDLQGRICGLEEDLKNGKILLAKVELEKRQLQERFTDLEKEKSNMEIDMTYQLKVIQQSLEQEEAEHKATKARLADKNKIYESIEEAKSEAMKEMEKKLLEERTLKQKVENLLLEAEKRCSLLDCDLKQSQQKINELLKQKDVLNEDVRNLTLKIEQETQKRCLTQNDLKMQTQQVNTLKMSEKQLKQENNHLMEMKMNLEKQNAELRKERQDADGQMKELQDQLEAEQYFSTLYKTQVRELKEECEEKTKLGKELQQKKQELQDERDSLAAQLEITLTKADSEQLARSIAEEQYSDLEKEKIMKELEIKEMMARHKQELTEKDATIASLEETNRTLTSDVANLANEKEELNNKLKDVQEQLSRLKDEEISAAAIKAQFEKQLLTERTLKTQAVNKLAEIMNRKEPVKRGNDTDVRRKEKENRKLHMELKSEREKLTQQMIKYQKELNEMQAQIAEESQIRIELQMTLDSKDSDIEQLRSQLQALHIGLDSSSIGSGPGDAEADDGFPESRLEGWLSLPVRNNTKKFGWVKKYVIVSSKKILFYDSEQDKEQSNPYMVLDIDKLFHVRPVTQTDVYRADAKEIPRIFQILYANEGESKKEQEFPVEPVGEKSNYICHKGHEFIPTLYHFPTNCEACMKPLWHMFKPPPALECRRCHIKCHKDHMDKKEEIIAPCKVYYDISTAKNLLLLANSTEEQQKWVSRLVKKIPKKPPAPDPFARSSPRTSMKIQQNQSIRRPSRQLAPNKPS

**Q.** What does the source list for O=S(=O)(c1cccc2cnccc12)N1CCCNCC1 [fasudil]?
**A.** coronary constrictive remodeling [1]: promote a regression of coronary constrictive remodeling; coronary stenosis [1]: progressively reduce coronary stenosis; infarct size and neurologic deficit (rat stroke model): reduce both the infarct size and neurologic deficit

**Q.** What does the source list for C[C@@H](N)[C@H]1CC[C@H](C(=O)Nc2ccncc2)CC1 [Example Y-27632, Y-27632]?
**A.** blood pressure in control rats ([2]; control rats): only a minor effect on blood pressure; blood pressure ([2]; three rat models of hypertension): significantly decrease blood pressure; neointimal formation (neointimal formation): inhibited neointimal formation; ventricular hypertrophy, fibrosis and function [3]: improve ventricular hypertrophy, fibrosis and function

**Q.** For [H][C@]1(Oc2ncccc2C(N)=O)C[C@]2(C[C@@H](Nc3nccc(NC4CCC(F)(F)CC4)n3)C2)C1 (stereo partly drawn) [Example 44, 2-(((2S,4s,6S)-6-((4-((4,4-difluoro-cyclohexyl)amino)pyrimidin-2-yl)amino)spiro[3.3]heptan-2-yl)oxy) nicotinamide], which IC50 (ROCK2) is on record?
**A.** 489 nM
